Results published in publication PMC12073635, “Synthesis of Tricyclic and Tetracyclic Lactone Derivatives of Thieno[2,3-b]pyrazine or Thieno[2,3-b]quinoline: Preliminary Antitumor and Antiparasitic Activity Evaluation” (Molecules, 2025).
pIC50: −log10 of the molar value.

Experiments:
[1] = test system: L. infantum MHOM/MA/67/ITMAP-263 promastigotes; assay: Resazurin-based assay against L. infantum promastigotes; assay type: cell-based, Leishmania infantum; conditions: Leishmania infantum, 72 h, dose-response
Procedure: The antiparasitic activity of compounds 2c–g, 3a, 5a and 7 was evaluated at a single concentration of 20 μM, against Trypanosoma brucei (T. brucei) and Leishmania infantum (L. infantum) promastigotes. The results are shown in Table 9 together with the cytotoxicity data (CC50) in THP-1–derived macrophages cells.
L. infantum MHOM/MA/67/ITMAP-263 promastigotes forms were grown at 27 °C, in complete RPMI-1640 medium supplemented with 10% heat-inactivated Fetal Bovine Serum (FBS), 2 mM L-glutamine, 100 UI/mL penicillin/streptomycin, 20 mM HEPES. Parasites maintenance was performed in T25 non-ventilated flasks by subpassage at a concentration of 1 × 10^6/mL every 5 days on T25 non-ventilated flasks.
The compounds’ efficacy against L. infantum promastigotes was evaluated using a resazurin-based assay. Parasites were added to 100 µL of serial dilutions of compounds in supplemented complete medium at a cell density of 5 × 10^5/mL. As a quality control, a dose–response curve to the antileishmanial drug miltefosine was included in all the assays. The final volume of the assay was 200 µL/well. Each condition was carried out in duplicate. Following 72 h of incubation at the specific conditions for L. infantum, 20 µL of a 0.5 mM resazurin solution was added, and the plates were incubated for a further 4 h under the same conditions. The methodology to obtain the results was the same described in Section 3.2.2. for T. brucei.

[2] = MTT cytotoxicity in THP-1-derived macrophages; assay type: cell-based, human; conditions: human, THP-1-derived macrophages (PMA-differentiated); MTT, 72 h, tested 100 to 12.5 μM; read-out: CC50 Interval in THP-1-Derived Macrophages
Procedure, shortened: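 THP-1 cells differentiated into macrophages with 40 ng/mL PMA for 24 h plus 24 h in fresh medium, then exposed to compounds at 100 to 12.5 μM for 72 h at 37 °C, 5% CO2. Viability by MTT (0.5 mg/mL, 4 h), absorbance 570 nm; CC50 by non-linear regression, at least three independent experiments.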

Work on `COC(=O)c1sc2nccnc2c1C#Cc1ccccn1` [Compound 2f, Methyl 7-(pyridin-2-ylethynyl)thieno[2,3-b]pyrazine-6-carboxylate] yielded a pIC50 [1] of 4.80 and a CC50 at 72 h [2] of 25 to 100 µM.
